Experimental data published in paper PMC5130005, “Indolin-2-one compounds targeting thioredoxin reductase as potential anticancer drug leads” (Oncotarget, 2016).

Tests used:
TrxR in MCF-7 cells = molecular target: T1, TrxR in MCF-7 cells (Homo sapiens, UniProt Q16881); experiment: cellular TrxR activity in MCF-7 cell lysates (insulin reduction assay); format: cell-based; conditions: for cellular TrxR activity, MCF-7 cells: 10 h treatment, 20, 30, 40 and 50 μM
T1 construct: Lysates of MCF-7 cells treated with indicated concentrations of selected SCA analogs for 10 h; endogenous in cells; host or cells: MCF-7
T1 sequence (Q16881 1-499 isoform Q16881-5): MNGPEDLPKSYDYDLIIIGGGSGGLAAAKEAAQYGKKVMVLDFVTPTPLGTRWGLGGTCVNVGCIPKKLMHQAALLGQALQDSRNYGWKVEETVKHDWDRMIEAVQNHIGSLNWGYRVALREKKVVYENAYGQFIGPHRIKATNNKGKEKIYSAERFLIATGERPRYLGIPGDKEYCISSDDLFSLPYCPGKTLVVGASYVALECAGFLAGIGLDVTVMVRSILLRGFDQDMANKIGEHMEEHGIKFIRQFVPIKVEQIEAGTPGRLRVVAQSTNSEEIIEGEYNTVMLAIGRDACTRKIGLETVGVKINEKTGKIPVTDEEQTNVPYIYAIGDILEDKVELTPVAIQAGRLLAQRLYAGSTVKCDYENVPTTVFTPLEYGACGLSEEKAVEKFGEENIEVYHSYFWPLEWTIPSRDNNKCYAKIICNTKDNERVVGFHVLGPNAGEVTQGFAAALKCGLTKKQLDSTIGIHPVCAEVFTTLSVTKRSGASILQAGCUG
Protocol: Cells were seeded onto 100 mm or 60 mm culture plates and upon reaching ~70% confluency, they were subjected to drug treatment for indicated durations. Pellets of compound-treated or DMSO control cells comprising both attached and floating cells were collected and lysed in lysis buffer (25 mM Tris-HCl pH 7.5, 100 mM NaCl, 2.5 mM EDTA, 2.5 mM EGTA, 20 mM NaF, 1 mM Na3VO4, 20 mM sodium β-glycerophosphate, 10 mM sodium pyrophosphate, 0.5% Triton X-100) with freshly added protease inhibitor cocktail (Roche Diagnostics). Prior to being used in Western blot analysis and/or cellular TrxR, GR, Trx and GPx activity determination, lysates were precleared by centrifugation and protein concentrations were determined using a modified Bradford assay (Bio-Rad Laboratories) as described in the manufacturer's manual. This procedure for collecting whole cell lysate was used for all experiments except for the Trx-redox state determination experiment. Equal amounts of protein (50 μg) in each lysate sample were separated by SDS-PAGE, followed by electroblotting onto nitrocellulose membranes. Electroblotted proteins on membranes were probed with a primary antibody and subsequently by a secondary antibody conjugated to HRP.
Freshly collected cell lysates were used for measurement of activity of cellular Trx and TrxR. To measure TrxR activity, in each well of a 96-well plate, 25 μg of cell lysate was incubated in a final volume of 50 μl containing 85 mM Hepes (pH 7.6), 0.3 mM insulin, 10 μM rhTrx1, 2.5 mM EDTA and 660 μM NADPH for 40 min at 37°C. Controls containing lysates and all reaction reagents except rhTrx1 for each lysate sample were also set up. 200 μl of 1 mM DTNB in 6 M guanidine-HCl, 200 mM Tris-HCl pH 8.0 solution was added to quench the reaction. The amount of free thiols generated from insulin reduction was determined by DTNB reduction at 412 nm using the VersaMax microplate reader. To measure Trx activity, procedures were carried out similar to those for determining cellular TrxR activity, except that the cell lysates were incubated for 20 min with 300 nM recombinant rat TrxR in place of rhTrx1. Controls containing lysates and all reaction reagents except recombinant rat TrxR for each lysate sample were also set up. For each sample, Trx or TrxR activity was calculated as the absorbance at 412 nm subtracted from that of the corresponding control and expressed as a percentage of the activity measured in DMSO-treated cells.

yeast GR = molecular target: T2, yeast GR (Saccharomyces cerevisiae, UniProt P41921); experiment: in vitro yeast GR activity (glutathione reduction assay); format: biochemical; conditions: 60 min incubation, 1-100 μM, 20 nM yeast GR, 200 μM NADPH
T2 construct: purchased Sigma
T2 sequence (P41921 17-483 limits assumed): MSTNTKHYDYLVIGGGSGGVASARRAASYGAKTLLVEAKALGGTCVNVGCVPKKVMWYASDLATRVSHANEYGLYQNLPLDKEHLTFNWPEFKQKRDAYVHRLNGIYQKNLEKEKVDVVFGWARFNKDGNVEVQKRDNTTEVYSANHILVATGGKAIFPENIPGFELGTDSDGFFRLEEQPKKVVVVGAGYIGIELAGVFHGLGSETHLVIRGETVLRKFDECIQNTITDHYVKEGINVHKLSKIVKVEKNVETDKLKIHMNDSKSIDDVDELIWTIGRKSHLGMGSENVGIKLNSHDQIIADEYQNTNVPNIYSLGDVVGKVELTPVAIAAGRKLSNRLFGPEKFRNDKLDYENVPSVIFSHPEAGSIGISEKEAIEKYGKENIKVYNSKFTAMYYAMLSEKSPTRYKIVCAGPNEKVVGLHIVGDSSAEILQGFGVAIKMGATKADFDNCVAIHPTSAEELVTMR
Protocol: To determine in vitro yeast GR activity, compounds of concentrations 1-100 μM were incubated with 20 nM yeast GR and 200 μM NADPH in a volume of 100 μl phosphate buffer (0.1 M sodium phosphate, 2 mM EDTA pH 7.5) for 1 h at room temperature. At the end of the incubation, 100 μl of […] GSSG (final concentration 500 μM) and 200 μM NADPH in phosphate buffer was added to each well. NADPH consumption was monitored by measurement of absorbance at 340 nm using the VersaMax microplate reader. The results were calculated based on decrease in absorbance in the initial 90 s and expressed as a percentage of the enzyme activity of the DMSO-treated sample. For determination of cellular GR activity, 25 μg of cell lysate was mixed with a solution of GSSG and NADPH in phosphate buffer to a final volume of 200 μl (final GSSG and NADPH concentrations 1 mM and 200 μM respectively). The enzyme activity was determined by measuring the decrease in absorbance at 340 nm for 10 min at 37°C and expressed as a percentage of the enzyme activity of that of the DMSO-treated sample.

MCF-7 cells = experiment: MTT cell viability assay, MCF-7 cells; format: cell-based; conditions: Homo sapiens, MCF7, 72 h, mean ± SD of 3 experiments; for GI50: read-out: GI50 (50% growth inhibition concentration), MCF-7 cells; for CC50: read-out: LC50 (50% lethal concentration), MCF-7 cells
Protocol: HCT 116 and MCF-7 cells were seeded in 96-well plates at a density of 1 × 10^4 cells/well and allowed to grow for 20-24 h before addition of test compounds. DMSO stocks of indolin-2-one compounds were serially diluted in medium each time an assay was performed. Cell viability was determined at the time of compound addition (time 0) and after 72 h of compound treatment by reduction of 3-(4,5-dimethylthiazol-2-yl)-2,5-diphenyltetrazolium bromide (MTT) by dehydrogenases in viable cells. MTT was added into each well (final concentration 400 μg/ml) and the plates were incubated for 4 h at 37°C. The supernatants were aspirated and upon solubilization of the formed formazan crystals in DMSO:glycine buffer pH 10.5 (ratio 4:1), absorbance at 550 nm was measured. 50% growth inhibition concentrations (GI50) and 50% lethal concentrations (LC50) values were calculated.

## CC(=O)C=C1C(=O)N(C)c2ccccc21 [Compound 1, 1-methyl-3(2-oxopropylidene)indolin-2-one]
TrxR in MCF-7 cells
  cellular TrxR activity, MCF-7 cells: did not cause apparent inhibition
Yeast GR
  yeast GR activity: uninhibited
MCF-7 cells
  GI50: 15.1 ± 4.1 µM
  CC50: 27.6 ± 0.4 µM

## CCCCN1C(=O)/C(=C/C(C)=O)c2ccccc21 [Compound 4]
TrxR in MCF-7 cells
  cellular TrxR activity, MCF-7 cells: decrease in TrxR activity in a dose-dependent manner
Yeast GR
  yeast GR activity: uninhibited
MCF-7 cells
  GI50: 6.4 ± 1.5 µM
  CC50: 22.4 ± 3.6 µM

## CC(=O)/C=C1/C(=O)N(Cc2ccccc2)c2ccccc21 [Compound 5]
TrxR in MCF-7 cells
  cellular TrxR activity, MCF-7 cells: decrease in TrxR activity in a dose-dependent manner
TrxR in MCF-7 cells; 10 h treatment, 40 and 50 μM, p < 0.05 vs DMSO
  cellular TrxR activity at 40 and 50 μM, MCF-7 cells: significant reduction
Yeast GR
  yeast GR activity: uninhibited
MCF-7 cells
  GI50: 4.5 ± 0.6 µM
  CC50: 9.6 ± 0.2 µM

## CN1C(=O)/C(=C/C(=O)c2ccccc2)c2ccccc21 [Compound 6]
TrxR in MCF-7 cells
  cellular TrxR activity, MCF-7 cells: did not cause apparent inhibition
Yeast GR
  yeast GR activity: uninhibited
MCF-7 cells
  GI50: 14 ± 3.7 µM
  CC50: 27.1 ± 0.5 µM
